Results from ChEMBL document CHEMBL5465560, “Selectivity Literature for EUbOPEN Chemogenomic Library” (2024).
Each block holds one compound with its values, some of them ahead of it.

Legend:
[1] = target: T1, Protein kinase C epsilon type (Homo sapiens) (UniProt Q02156); conditions: at 10 µM
T1 sequence (whole entry): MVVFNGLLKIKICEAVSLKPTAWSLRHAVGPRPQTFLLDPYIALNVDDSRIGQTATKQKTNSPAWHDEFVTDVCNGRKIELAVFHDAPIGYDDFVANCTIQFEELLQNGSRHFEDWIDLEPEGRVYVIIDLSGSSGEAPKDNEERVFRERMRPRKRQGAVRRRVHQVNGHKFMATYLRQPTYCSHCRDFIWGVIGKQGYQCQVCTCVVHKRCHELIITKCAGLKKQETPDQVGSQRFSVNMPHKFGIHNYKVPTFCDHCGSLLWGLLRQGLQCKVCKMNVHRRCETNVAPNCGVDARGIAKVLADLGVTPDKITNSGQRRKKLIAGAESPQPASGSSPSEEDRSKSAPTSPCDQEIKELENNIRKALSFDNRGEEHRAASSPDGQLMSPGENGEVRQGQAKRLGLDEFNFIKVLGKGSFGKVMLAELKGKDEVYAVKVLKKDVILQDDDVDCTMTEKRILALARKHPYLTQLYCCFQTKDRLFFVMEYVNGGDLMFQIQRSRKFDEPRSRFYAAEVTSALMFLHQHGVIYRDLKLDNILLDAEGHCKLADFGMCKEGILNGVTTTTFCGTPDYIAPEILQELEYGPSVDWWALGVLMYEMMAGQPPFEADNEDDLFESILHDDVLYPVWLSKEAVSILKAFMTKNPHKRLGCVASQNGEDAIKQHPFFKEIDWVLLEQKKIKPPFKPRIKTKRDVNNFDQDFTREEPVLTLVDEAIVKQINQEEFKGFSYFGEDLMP

[2] = target: Serine/threonine-protein kinase 16 (Homo sapiens, UniProt O75716); experiment: Selectivity interaction (KinomeScan (DiscoverX)) EUB0001868a STK16; conditions: at 1 µM
[3] = target: Tyrosine-protein kinase SYK (Homo sapiens, UniProt P43405); experiment: Selectivity interaction (KinomeScan (DiscoverX)) EUB0001049a SYK; conditions: at 1 µM
[4] = target: Phosphatidylinositol 3-kinase catalytic subunit type 3 (Homo sapiens, UniProt Q8NEB9); experiment: Selectivity interaction (ActivX KiNativ screen (kinase selectivity in THP-1 cell lysates)) EUB0000639a PIK3C3; format: subcellular; conditions: lysate, at 5 µM
[5] = target: Serine/threonine-protein kinase tousled-like 2 (Homo sapiens) (UniProt Q86UE8); experiment: Selectivity interaction (ActivX KiNativ screen (kinase selectivity in THP-1 cell lysates)) EUB0000639a TLK2; format: subcellular; conditions: lysate, at 0.01 µM
[6] = target: Histone-lysine N-methyltransferase KMT5B (Homo sapiens) (UniProt Q4FZB7); experiment: Selectivity interaction (Transferase panel (protein, RNA, and DNA methyltransferases. and EP300 (acetyltransferase))) EUB0000270b SUV420H1
[7] = target: Mitogen-activated protein kinase kinase kinase 11 (Homo sapiens) (UniProt Q16584); experiment: Selectivity interaction (LanthaScreen Eu Kinase Binding Assay) EUB0001632a MAP3K11; conditions: at 10 µM
[8] = target: Histamine H2 receptor (Homo sapiens) (UniProt P25021); experiment: Selectivity interaction (Panel of non-epigenetic targets (kinases, GPCRs, ion channels, and transporters, Eurofins) ) EUB0000271b HRH2; conditions: at 1 µM
[9] = target: Activin receptor type-2B (Homo sapiens) (UniProt Q13705); conditions: at 10 µM
[10] = target: Vascular endothelial growth factor receptor 1 (Homo sapiens) (UniProt P17948); experiment: Selectivity interaction (KinomeScan (DiscoverX)) EUB0000092b FLT1; conditions: at 10 µM
[11] = target: Insulin-like growth factor 1 receptor (Homo sapiens, UniProt P08069); experiment: Selectivity interaction (KinomeScan (DiscoverX)) EUB0000092b IGF1R; conditions: at 10 µM
[12] = target: Tyrosine-protein kinase Lyn (Homo sapiens, UniProt P07948); experiment: Selectivity interaction (KinomeScan (DiscoverX)) EUB0000092b LYN; conditions: at 10 µM
[13] = target: T2, cAMP-dependent protein kinase catalytic subunit PRKX (Homo sapiens) (UniProt P51817); experiment: Selectivity interaction (Upstate Kinase Profiler service (Millipore)) EUB0000056c PRKX; conditions: at 1 µM
T2 sequence (whole entry): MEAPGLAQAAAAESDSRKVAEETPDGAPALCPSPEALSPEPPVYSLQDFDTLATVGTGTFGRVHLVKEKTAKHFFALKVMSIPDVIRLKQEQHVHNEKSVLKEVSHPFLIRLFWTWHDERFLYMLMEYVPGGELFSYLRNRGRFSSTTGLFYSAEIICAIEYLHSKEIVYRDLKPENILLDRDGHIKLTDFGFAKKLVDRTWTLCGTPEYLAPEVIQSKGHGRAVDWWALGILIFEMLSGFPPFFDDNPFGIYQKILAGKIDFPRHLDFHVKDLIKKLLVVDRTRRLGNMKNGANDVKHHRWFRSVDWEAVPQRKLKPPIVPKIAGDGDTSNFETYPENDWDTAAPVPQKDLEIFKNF

[14] = target: Ribosomal protein S6 kinase beta-2 (Homo sapiens) (UniProt Q9UBS0); experiment: Selectivity interaction (ActivX KiNativ screen (ex vivo kinase selectivity in human PBMCs)) EUB0001619a RPS6KB2; format: cell-based; conditions: PBMC, at 1 µM
[15] = target: Tyrosine-protein kinase Lck (Homo sapiens, UniProt P06239); experiment: Selectivity interaction (SelectScreen profiling (Invitrogen)) EUB0000607a LCK; conditions: at 2 µM
[16] = target: Serine/threonine-protein kinase pim-2 (Homo sapiens, UniProt Q9P1W9); experiment: Selectivity interaction (KinomeScan (DiscoverX)) EUB0000666a PIM2; conditions: at 10 µM
[17] = target: 5-hydroxytryptamine receptor 2A (Homo sapiens, UniProt P28223); experiment: Selectivity interaction (Panel of kinases, GPCRs, ion channels and transporters (enzymatic assay)) EUB0000223bCl HTR2A
Sequence of 5-hydroxytryptamine receptor 2A (P28223 whole entry): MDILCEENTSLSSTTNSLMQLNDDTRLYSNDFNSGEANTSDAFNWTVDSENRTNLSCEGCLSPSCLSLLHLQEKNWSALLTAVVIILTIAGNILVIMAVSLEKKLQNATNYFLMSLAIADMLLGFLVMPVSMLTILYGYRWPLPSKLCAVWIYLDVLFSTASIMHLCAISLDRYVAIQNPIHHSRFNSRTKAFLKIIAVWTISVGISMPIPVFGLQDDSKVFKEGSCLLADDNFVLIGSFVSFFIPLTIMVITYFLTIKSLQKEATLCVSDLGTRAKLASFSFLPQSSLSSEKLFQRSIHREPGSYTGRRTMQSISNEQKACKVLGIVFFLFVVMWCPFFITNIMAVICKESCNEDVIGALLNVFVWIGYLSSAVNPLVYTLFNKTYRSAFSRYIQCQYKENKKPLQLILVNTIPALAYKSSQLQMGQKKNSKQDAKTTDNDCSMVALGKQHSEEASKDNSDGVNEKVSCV

Sequence of Histone-lysine N-methyltransferase KMT5B (Homo sapiens) (Q4FZB7 whole entry, looked up): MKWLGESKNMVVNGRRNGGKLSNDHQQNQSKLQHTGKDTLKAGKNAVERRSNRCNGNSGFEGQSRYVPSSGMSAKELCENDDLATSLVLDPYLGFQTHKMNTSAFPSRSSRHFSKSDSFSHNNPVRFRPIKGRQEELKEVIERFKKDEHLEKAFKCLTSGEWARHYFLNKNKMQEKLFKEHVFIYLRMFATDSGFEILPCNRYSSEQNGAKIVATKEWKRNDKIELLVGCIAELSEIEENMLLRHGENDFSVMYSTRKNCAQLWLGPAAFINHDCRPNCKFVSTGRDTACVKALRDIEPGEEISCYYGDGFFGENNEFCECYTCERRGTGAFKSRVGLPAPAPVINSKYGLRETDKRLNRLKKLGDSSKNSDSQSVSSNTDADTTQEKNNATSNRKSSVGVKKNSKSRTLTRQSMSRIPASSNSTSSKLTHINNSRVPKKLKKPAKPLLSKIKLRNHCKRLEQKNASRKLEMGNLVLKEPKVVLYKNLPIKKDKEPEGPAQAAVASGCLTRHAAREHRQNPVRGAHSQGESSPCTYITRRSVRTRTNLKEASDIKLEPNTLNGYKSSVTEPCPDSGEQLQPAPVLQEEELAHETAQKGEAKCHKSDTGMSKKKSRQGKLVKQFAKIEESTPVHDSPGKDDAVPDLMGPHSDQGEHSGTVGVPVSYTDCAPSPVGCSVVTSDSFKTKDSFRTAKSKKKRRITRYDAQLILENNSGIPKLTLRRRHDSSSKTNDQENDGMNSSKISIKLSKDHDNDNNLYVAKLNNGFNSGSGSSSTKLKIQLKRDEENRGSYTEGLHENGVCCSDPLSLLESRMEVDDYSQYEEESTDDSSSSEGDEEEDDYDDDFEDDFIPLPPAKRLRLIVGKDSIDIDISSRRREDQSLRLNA
Sequence of Ribosomal protein S6 kinase beta-2 (Homo sapiens) (Q9UBS0 whole entry): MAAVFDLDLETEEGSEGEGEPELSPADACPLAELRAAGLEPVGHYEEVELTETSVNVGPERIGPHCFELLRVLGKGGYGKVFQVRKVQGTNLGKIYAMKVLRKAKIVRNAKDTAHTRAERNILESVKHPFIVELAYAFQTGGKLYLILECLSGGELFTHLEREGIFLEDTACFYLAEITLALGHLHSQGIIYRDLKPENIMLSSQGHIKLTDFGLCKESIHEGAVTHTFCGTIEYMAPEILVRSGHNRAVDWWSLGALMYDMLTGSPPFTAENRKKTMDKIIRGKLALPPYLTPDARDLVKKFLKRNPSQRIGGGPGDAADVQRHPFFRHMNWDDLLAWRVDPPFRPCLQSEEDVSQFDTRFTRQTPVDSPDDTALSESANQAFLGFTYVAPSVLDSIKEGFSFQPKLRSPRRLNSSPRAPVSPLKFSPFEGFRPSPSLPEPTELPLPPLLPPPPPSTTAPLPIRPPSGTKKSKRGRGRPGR
Sequence of Serine/threonine-protein kinase 16 (O75716 whole entry): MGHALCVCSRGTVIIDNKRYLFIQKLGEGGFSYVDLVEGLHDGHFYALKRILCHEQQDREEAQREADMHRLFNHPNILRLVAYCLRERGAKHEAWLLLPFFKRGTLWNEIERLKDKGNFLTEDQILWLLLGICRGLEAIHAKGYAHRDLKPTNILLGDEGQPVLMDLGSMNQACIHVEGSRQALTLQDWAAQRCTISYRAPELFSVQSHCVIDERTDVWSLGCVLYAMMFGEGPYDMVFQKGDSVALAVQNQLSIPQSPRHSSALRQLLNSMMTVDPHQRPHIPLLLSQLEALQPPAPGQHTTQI
Sequence of Activin receptor type-2B (Homo sapiens) (Q13705 whole entry): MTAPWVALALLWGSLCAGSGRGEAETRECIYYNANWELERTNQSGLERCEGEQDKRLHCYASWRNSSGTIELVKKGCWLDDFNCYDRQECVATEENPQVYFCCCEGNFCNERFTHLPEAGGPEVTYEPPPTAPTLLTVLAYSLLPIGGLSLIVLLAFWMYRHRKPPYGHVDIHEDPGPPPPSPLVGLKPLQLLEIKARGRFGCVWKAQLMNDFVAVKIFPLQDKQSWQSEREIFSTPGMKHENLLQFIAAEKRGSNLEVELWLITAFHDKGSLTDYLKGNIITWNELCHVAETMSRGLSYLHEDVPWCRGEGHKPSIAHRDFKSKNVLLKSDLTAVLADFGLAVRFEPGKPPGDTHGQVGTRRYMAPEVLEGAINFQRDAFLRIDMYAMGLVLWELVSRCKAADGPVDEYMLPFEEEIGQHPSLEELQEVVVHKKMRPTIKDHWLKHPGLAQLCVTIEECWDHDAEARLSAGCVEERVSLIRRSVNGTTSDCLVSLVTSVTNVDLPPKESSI
Sequence of Tyrosine-protein kinase Lck (P06239 2-509 limits assumed): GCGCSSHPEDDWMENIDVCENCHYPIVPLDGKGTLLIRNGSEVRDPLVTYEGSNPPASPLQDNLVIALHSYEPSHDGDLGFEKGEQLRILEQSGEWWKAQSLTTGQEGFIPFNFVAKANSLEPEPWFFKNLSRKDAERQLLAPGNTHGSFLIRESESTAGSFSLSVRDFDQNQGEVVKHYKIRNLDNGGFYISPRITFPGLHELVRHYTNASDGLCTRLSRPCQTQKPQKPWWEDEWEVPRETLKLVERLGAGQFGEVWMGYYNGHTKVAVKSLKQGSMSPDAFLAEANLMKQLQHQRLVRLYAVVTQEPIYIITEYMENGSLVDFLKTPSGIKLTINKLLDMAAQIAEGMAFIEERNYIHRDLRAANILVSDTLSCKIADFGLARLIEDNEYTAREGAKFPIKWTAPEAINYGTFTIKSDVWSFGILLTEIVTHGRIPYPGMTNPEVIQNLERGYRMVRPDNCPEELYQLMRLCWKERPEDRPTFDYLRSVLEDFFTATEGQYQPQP
Sequence of Tyrosine-protein kinase Lyn (P07948 2-512 limits assumed): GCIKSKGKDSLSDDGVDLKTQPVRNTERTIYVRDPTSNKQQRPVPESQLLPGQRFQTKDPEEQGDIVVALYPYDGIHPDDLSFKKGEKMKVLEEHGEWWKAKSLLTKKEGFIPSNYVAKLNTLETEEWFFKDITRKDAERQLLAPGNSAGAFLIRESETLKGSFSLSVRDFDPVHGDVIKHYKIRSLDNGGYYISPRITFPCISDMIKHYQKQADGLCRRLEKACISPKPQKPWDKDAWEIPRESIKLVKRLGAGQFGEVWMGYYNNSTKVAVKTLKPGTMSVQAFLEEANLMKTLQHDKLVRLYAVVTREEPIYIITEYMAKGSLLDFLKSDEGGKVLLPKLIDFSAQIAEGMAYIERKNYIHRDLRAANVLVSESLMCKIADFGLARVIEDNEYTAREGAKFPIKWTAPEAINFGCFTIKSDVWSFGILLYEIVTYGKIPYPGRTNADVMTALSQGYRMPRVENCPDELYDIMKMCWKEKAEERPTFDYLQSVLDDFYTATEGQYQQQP
Sequence of Vascular endothelial growth factor receptor 1 (Homo sapiens) (P17948 whole entry): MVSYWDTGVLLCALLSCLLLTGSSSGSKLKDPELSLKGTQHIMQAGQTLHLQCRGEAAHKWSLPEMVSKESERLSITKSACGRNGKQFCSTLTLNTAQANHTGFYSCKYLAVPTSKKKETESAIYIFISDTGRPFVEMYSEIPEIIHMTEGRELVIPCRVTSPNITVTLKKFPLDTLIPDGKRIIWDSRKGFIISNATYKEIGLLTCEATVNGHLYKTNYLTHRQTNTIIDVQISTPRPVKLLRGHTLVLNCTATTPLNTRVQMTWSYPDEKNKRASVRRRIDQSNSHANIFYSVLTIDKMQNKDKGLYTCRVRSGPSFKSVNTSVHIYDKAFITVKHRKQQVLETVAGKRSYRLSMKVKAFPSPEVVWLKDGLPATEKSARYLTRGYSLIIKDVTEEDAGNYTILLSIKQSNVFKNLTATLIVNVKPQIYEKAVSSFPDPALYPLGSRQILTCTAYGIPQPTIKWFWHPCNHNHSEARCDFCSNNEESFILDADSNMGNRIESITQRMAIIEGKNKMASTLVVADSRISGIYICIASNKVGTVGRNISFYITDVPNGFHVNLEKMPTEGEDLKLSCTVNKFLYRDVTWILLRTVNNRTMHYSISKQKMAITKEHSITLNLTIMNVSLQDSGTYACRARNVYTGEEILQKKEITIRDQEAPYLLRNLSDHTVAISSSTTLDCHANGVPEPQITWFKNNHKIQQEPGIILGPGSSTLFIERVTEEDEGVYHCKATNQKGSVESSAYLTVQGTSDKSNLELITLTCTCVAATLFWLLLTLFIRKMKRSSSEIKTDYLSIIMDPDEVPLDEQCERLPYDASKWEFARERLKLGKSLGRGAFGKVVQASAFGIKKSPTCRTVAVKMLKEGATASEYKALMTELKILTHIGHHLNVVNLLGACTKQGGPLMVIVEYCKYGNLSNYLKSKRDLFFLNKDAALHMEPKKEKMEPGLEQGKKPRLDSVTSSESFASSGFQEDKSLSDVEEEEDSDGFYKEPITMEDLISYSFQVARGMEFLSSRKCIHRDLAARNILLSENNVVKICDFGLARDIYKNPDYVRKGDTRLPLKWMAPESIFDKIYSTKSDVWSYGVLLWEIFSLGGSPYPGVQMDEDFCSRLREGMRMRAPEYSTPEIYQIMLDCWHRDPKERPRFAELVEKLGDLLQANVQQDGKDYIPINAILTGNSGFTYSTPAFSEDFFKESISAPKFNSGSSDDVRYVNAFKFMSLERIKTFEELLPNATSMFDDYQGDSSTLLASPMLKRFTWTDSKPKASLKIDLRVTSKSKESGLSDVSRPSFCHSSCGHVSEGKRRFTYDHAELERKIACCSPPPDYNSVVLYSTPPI

SMILES: Cc1cc([C@@H](C)Nc2ccccc2C(=O)O)c2nc(N3CCOCC3)cc(=O)n2c1 [AZD-6482]
% of control [1]: 100%

% of control [2]: 23%
SMILES: Cc1cc(-c2ccnc(Nc3cnn(C)c3)n2)ccc1CNC(=O)N1CC(OC(C)C)C1

SMILES: COc1cc(Nc2nc(C)cc(-c3cnn4nc(OC)ccc34)n2)cc(C(F)(F)F)c1
% of control [3]: 100%

% of inhibition [4]: 30.7%
% of inhibition [5]: 0.7%
SMILES: CC[C@@H]1[C@H](F)C(=O)N[C@@H]1COc1nccc2cc(C(N)=O)c(OC)cc12 [ZIMLOVISERTIB]

% activity ([6]; at 1 µM): > 90%
% activity ([6]; at 10 µM): > 80%
SMILES: Cc1cc(CN)cc(C)c1-c1ncn(C)c1-c1cncn1C

% of inhibition [7]: -0.811%
SMILES: Cn1cc(-n2cnc3c(NCc4nc5cc(Cl)c(Cl)cc5[nH]4)nc(N4CCOCC4)nc32)cn1

SMILES: Cc1cc(C)cc([C@@H]2c3cc(C)ccc3NC(=O)CN2C(=O)c2ccc(Br)s2)c1
% of inhibition [8]: -18%

SMILES: COCC(=O)NC/C=C/c1ccc2ncnc(Nc3ccc(Oc4ccc(C)nc4)c(C)c3)c2c1 [CP-724714]
% of control [9]: 100%

SMILES: CCC(=O)N1CCN(c2ccc(-n3c(=O)ccc4cnc5ccc(-c6cnc7ccccc7c6)cc5c43)cc2C(F)(F)F)CC1
% of control [10]: 79%
% of control [11]: 94%
% of control [12]: 79%

% of inhibition [13]: 8%
SMILES: Cc1ccc(-c2ccc3c(ccc4sc5c(c43)NC[C@@H](C)NC5=O)n2)cn1

SMILES: N#Cc1cccc(-c2c[nH]c3ncnc(N4CCOCC4)c23)c1
% of inhibition [14]: 19%

SMILES: CNC(=O)Nc1ccc(-c2nc(N3CC4CCC(C3)O4)c3cnn(C4CCC5(CC4)OCCO5)c3n2)cc1
% of inhibition [15]: 10%

SMILES: O=C(NOC[C@H](O)CO)c1ccc(F)c(F)c1Nc1ccc(I)cc1F
% of control [16]: 75%

SMILES: COc1cc(C(=O)N2CC[C@@H](O)[C@@H](N)C2)cc2nc(-c3cc4ccccc4n3CC3CC3)n(C)c12
pXC50 [17]: 4.9 M
